Data from US20240358721A1, “GASDERMIN-D INHIBITORS AND USES THEREOF FOR TREATING PULMONARY VASO-OCCLUSION” (UNIVERSITY OF PITTSBURGH-OF THE COMMONWEALTH SYSTEM OF …, priority 2021, published 2024).

What was measured:
[1] = system: SCD-Selp−/− mice; experiment: qFILM assessment of P-selectin-independent pulmonary vaso-occlusion in SCD-Selp−/− mice IV administered oxy-Hb; format: in vivo, mouse; settings: IV 10 μmole/kg oxy-Hb with 10 mg/kg inhibitor vs oxy-Hb alone
Excerpt: Quantitative fluorescence intravital lung microscopy (qFILM) was used to assess the absence or presence of platelet-neutrophil aggregate mediated pulmonary vaso-occlusion. Pulmonary microcirculation (pseudo-colored purple), neutrophils (red) and platelets (pseudo-colored green) were labeled in vivo by IV administration of FITC dextran, AF546-anti-Ly6G Ab and V450-anti-CD49b Ab, respectively. […] White arrows denote the direction of blood flow within the pulmonary arterioles. Alveoli are marked with asterisks. Scale bars 20 μm. The diameter of pulmonary arteriole in B-E is ˜22 μm, 32 μm, 31.5 μm, and 31 μm, respectively. […] Refer Online Data Supplement for details. […] The data for mice with SCD IV administered 10 oxy-Hb (n=5 mice; 75 FOVs) are included as black bars in FIGS. 1N and 1O for relative comparison. qFILM FOV size ˜65 536 μm^2. Data represent mean ±SE and are compared using Student t test. *P<0.05 (FIG. 1P) Schematic showing the main findings of the study. The sterile inflammatory milieu (DAMPs, IFN-I signaling, and ROS) in SCD promotes caspase-4 (humans) or caspase-11 (mouse)-dependent cleavage of neutrophil GSDMD into the active form GSDMD-NT, leading to the shedding of NETs in the liver microcirculation. Once shed, these NETs are carried by the blood as cNETs to the lung, where they promote neutrophil-platelet aggregation in the pulmonary arterioles, leading to PVO and lung injury (acute chest syndrome).
SCD-Selp^−/− mice were IV administered 10 μmole/kg oxy-Hb (10 oxy-Hb) without or with 10 mg/kg GSDMD inhibitor (Disulfiram). Quantitative fluorescence intravital lung microscopy (qFILM) was used to assess the absence or presence of pulmonary vasoocclusion using the same experimental scheme described in FIG. 1A. Pulmonary vasoocclusions (PVOs) were compared between treatment groups using following two parameters: Number of PVOs per Field of View (#PVOs/FOV) and number of large PVOs (with area>1000 μm^2) per FOV. […] The data for SCD mice IV administered 10 oxy-Hb (n=5 mice; 75 FOVs) is included as black bars in FIGS. 4A and 4B for relative comparison. FOV size˜65,536 μm^2. […]
(§1) (FIG. 5A) Experimental scheme: SCD or SCD-Selp^−/− mice were IV administered 10 μmole/kg oxy-Hb (10 oxy-Hb) without or with 10 mg/kg GSDMD inhibitors LDC75591 or Disulfiram. In FIGS. 5C-5D, venous blood was processed to generate PPP and cNETs detected in PPP using Imaging Flow Cytometry. Imaging Flow Cytometry data was quantified to estimate concentration of cNETs (#cNETs/μl of plasma). In FIGS. 5B, and 5E-5F, quantitative fluorescence intravital lung microscopy (qFILM) was used to detect arrival of circulating NETs (cNETs) within the lung microcirculation. Number of cNETs entering per FOV over a 1-minute duration (#cNETs/FOV/min) were quantified. […]

[2] = system: SCD-Selp−/− mice; experiment: qFILM detection of circulating NETs arriving in the lung microcirculation, SCD-Selp−/− mice; format: in vivo, mouse; settings: IV 10 μmole/kg oxy-Hb with 10 mg/kg inhibitor vs oxy-Hb alone, significant
Procedure: as §1, with “quantified. In FIGS. 5G-5J, qFILM was used to assess the absence or presence of pulmonary vaso-occlusion using the experimental strategy described in FIG. 1A. Pulmonary vaso-occlusions (PVOs) were compared between treatment groups using following two parameters: Number of PVOs per Field of View (#PVOs/FOV) and number of large PVOs (with area>1000 μm^2) per FOV.” for “quantified.”
Quantitative fluorescence intravital lung microscopy (qFILM) has been used widely for in vivo assessment of pulmonary vasoocclusion in mice with SCD [Bennewitz M F et al., (2017); Vats R, Brzoska T, Bennewitz M F, et al. (2020); Vats R, Tutuncuoglu E, Pradhan-Sundd T, Tejero J, Shaw G D, Sundd P. (2020); Bennewitz M F, Tutuncuoglu E, Gudapati S, et al. (2020)] […]

## CCN(CC)C(=S)SSC(=S)N(CC)CC [Disulfiram, disulfiram]
[1]
  number of large PVOs (with area>1000 μm^2) per FOV: absent
[1]; 10 mg/kg
  Number of PVOs per Field of View (#PVOs/FOV): significantly reduced
[2]
  #cNETs/FOV/min in the lung, less than 10 oxy-Hb alone: 4 folds
